Reference: PubChem BioAssay (NCI)
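Briefly, cells in 96-well plates were exposed to five compound concentrations for 48 h, and endpoints were estimated by linear interpolation. TGI denotes the concentration required for complete inhibition of growth.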

Assays:
Test in all cases: inhibition of tumour cell growth, NCI panel, 48 h
HCT-116 colon = test system: HCT-116 colon
HS 578T breast = test system: HS 578T breast
SK-MEL-28 melanoma = test system: SK-MEL-28 melanoma
UO-31 renal = test system: UO-31 renal
U251 CNS = test system: U251 CNS
HT29 colon = test system: HT29 colon
SF-295 CNS = test system: SF-295 CNS
M14 melanoma = test system: M14 melanoma
SN12C renal = test system: SN12C renal
MOLT-4 leukemia = test system: MOLT-4 leukemia
MCF7 breast = test system: MCF7 breast
DU-145 prostate = test system: DU-145 prostate
HOP-92 NSCLC = test system: HOP-92 NSCLC
NCI-H522 lung = test system: NCI-H522 lung
HL-60(TB) leukemia = test system: HL-60(TB) leukemia
PC-3 prostate = test system: PC-3 prostate
SF-539 CNS = test system: SF-539 CNS
A549 NSCLC = test system: A549 NSCLC
SF-268 CNS = test system: SF-268 CNS
SW-620 colon = test system: SW-620 colon
ACHN renal = test system: ACHN renal
UACC-62 melanoma = test system: UACC-62 melanoma
OVCAR-8 ovarian = test system: OVCAR-8 ovarian
MDA-MB-435 = test system: MDA-MB-435
KM12 colon = test system: KM12 colon
RPMI-8226 leukemia = test system: RPMI-8226 leukemia
786-0 renal = test system: 786-0 renal
T-47D breast = test system: T-47D breast
SR leukemia = test system: SR leukemia
HCT-15 colon = test system: HCT-15 colon
BT-549 breast = test system: BT-549 breast
SK-MEL-5 melanoma = test system: SK-MEL-5 melanoma
TK-10 renal = test system: TK-10 renal
MDA-N = test system: MDA-N
EKVX NSCLC = test system: EKVX NSCLC
SNB-75 CNS = test system: SNB-75 CNS
IGROV1 ovarian = test system: IGROV1 ovarian
HOP-62 NSCLC = test system: HOP-62 NSCLC
OVCAR-5 ovarian = test system: OVCAR-5 ovarian
SK-OV-3 ovarian = test system: SK-OV-3 ovarian
A498 renal = test system: A498 renal
OVCAR-4 ovarian = test system: OVCAR-4 ovarian
NCI-H460 lung = test system: NCI-H460 lung
COLO 205 colon = test system: COLO 205 colon
NCI-H23 lung = test system: NCI-H23 lung
K-562 leukemia = test system: K-562 leukemia
HCC-2998 colon = test system: HCC-2998 colon
RXF 393 renal = test system: RXF 393 renal
CCRF-CEM leukemia = test system: CCRF-CEM leukemia
MALME-3M melanoma = test system: MALME-3M melanoma
SNB-19 CNS = test system: SNB-19 CNS
MDA-MB-231 breast = test system: MDA-MB-231 breast
UACC-257 melanoma = test system: UACC-257 melanoma
NCI/ADR-RES ovarian = test system: NCI/ADR-RES ovarian
CAKI-1 renal = test system: CAKI-1 renal
OVCAR-3 ovarian = test system: OVCAR-3 ovarian
SK-MEL-2 melanoma = test system: SK-MEL-2 melanoma
LOX IMVI melanoma = test system: LOX IMVI melanoma
NCI-H226 lung = test system: NCI-H226 lung
DLD-1 colon = test system: DLD-1 colon
DMS 114 small cell lung = test system: DMS 114 small cell lung
M19-MEL melanoma = test system: M19-MEL melanoma
KM20L2 colon = test system: KM20L2 colon

SMILES: CCOC(=O)C1C(=O)CC(O)(c2ccccc2)C(C(=O)OCC)C1c1ccc(N(C)C)cc1 (stereo not drawn)
- TGI (HCT-116 colon): > 100 µM
- TGI (HS 578T breast): 23.1 µM
- TGI (SK-MEL-28 melanoma): > 100 µM
- TGI (UO-31 renal): > 100 µM
- TGI (U251 CNS): > 81.2 µM
- TGI (HT29 colon): > 58.5 µM
- TGI (SF-295 CNS): 29.8 µM
- TGI (M14 melanoma): > 100 µM
- TGI (SN12C renal): > 100 µM
- TGI (MOLT-4 leukemia): > 84.1 µM
- TGI (MCF7 breast): > 100 µM
- TGI (DU-145 prostate): > 100 µM
- TGI (HOP-92 NSCLC): > 81.7 µM
- TGI (NCI-H522 lung): 30.7 µM
- TGI (HL-60(TB) leukemia): 40 µM
- TGI (PC-3 prostate): > 100 µM
- TGI (SF-539 CNS): 37 µM
- TGI (A549 NSCLC): > 100 µM
- TGI (SF-268 CNS): > 93.5 µM
- TGI (SW-620 colon): > 100 µM
- TGI (ACHN renal): > 100 µM
- TGI (UACC-62 melanoma): > 100 µM
- TGI (OVCAR-8 ovarian): > 65.9 µM
- TGI (MDA-MB-435): 25.9 µM
- TGI (KM12 colon): > 100 µM
- TGI (RPMI-8226 leukemia): 37.4 µM
- TGI (786-0 renal): > 100 µM
- TGI (T-47D breast): > 92.5 µM
- TGI (SR leukemia): 49.1 µM
- TGI (HCT-15 colon): > 100 µM
- TGI (BT-549 breast): > 100 µM
- TGI (SK-MEL-5 melanoma): 72.3 µM
- TGI (TK-10 renal): > 100 µM
- TGI (MDA-N): 33.7 µM
- TGI (EKVX NSCLC): > 100 µM
- TGI (SNB-75 CNS): 64.9 µM
- TGI (IGROV1 ovarian): > 100 µM
- TGI (HOP-62 NSCLC): > 88.8 µM
- TGI (OVCAR-5 ovarian): > 100 µM
- TGI (SK-OV-3 ovarian): 52 µM
- TGI (A498 renal): > 100 µM
- TGI (OVCAR-4 ovarian): > 100 µM
- TGI (NCI-H460 lung): > 83.8 µM
- TGI (COLO 205 colon): 53.5 µM
- TGI (NCI-H23 lung): > 93.9 µM
- TGI (K-562 leukemia): > 100 µM
- TGI (HCC-2998 colon): > 100 µM
- TGI (RXF 393 renal): 44.4 µM
- TGI (CCRF-CEM leukemia): > 65.1 µM
- TGI (MALME-3M melanoma): > 85.6 µM
- TGI (SNB-19 CNS): > 79.9 µM
- TGI (MDA-MB-231 breast): > 77.1 µM
- TGI (UACC-257 melanoma): > 100 µM
- TGI (NCI/ADR-RES ovarian): > 78.2 µM
- TGI (CAKI-1 renal): > 100 µM
- TGI (OVCAR-3 ovarian): > 75.1 µM
- TGI (SK-MEL-2 melanoma): > 94 µM
- TGI (LOX IMVI melanoma): > 100 µM
- TGI (NCI-H226 lung): > 100 µM

SMILES: Cc1ccc(C(N)=Nc2ccccc2)cc1
- TGI (HCT-116 colon): > 100 µM
- TGI (HS 578T breast): > 100 µM
- TGI (SK-MEL-28 melanoma): > 100 µM
- TGI (UO-31 renal): > 100 µM
- TGI (U251 CNS): > 100 µM
- TGI (HT29 colon): > 100 µM
- TGI (SF-295 CNS): > 100 µM
- TGI (M14 melanoma): > 100 µM
- TGI (SN12C renal): > 100 µM
- TGI (MOLT-4 leukemia): > 100 µM
- TGI (MCF7 breast): > 100 µM
- TGI (DU-145 prostate): > 100 µM
- TGI (HOP-92 NSCLC): > 100 µM
- TGI (NCI-H522 lung): > 100 µM
- TGI (HL-60(TB) leukemia): > 100 µM
- TGI (PC-3 prostate): > 100 µM
- TGI (SF-539 CNS): > 100 µM
- TGI (A549 NSCLC): > 100 µM
- TGI (SF-268 CNS): > 100 µM
- TGI (SW-620 colon): > 100 µM
- TGI (ACHN renal): > 100 µM
- TGI (UACC-62 melanoma): > 100 µM
- TGI (OVCAR-8 ovarian): > 100 µM
- TGI (MDA-MB-435): > 100 µM
- TGI (KM12 colon): > 100 µM
- TGI (RPMI-8226 leukemia): > 100 µM
- TGI (786-0 renal): > 100 µM
- TGI (T-47D breast): > 100 µM
- TGI (SR leukemia): > 100 µM
- TGI (HCT-15 colon): > 100 µM
- TGI (BT-549 breast): > 100 µM
- TGI (SK-MEL-5 melanoma): > 100 µM
- TGI (TK-10 renal): > 100 µM
- TGI (MDA-N): > 100 µM
- TGI (EKVX NSCLC): > 100 µM
- TGI (SNB-75 CNS): > 100 µM
- TGI (IGROV1 ovarian): > 100 µM
- TGI (HOP-62 NSCLC): > 100 µM
- TGI (OVCAR-5 ovarian): > 100 µM
- TGI (SK-OV-3 ovarian): > 100 µM
- TGI (A498 renal): > 100 µM
- TGI (OVCAR-4 ovarian): > 100 µM
- TGI (NCI-H460 lung): > 100 µM
- TGI (COLO 205 colon): 42.2 µM
- TGI (NCI-H23 lung): > 100 µM
- TGI (K-562 leukemia): > 100 µM
- TGI (HCC-2998 colon): 33.7 µM
- TGI (RXF 393 renal): > 100 µM
- TGI (CCRF-CEM leukemia): > 100 µM
- TGI (MALME-3M melanoma): > 100 µM
- TGI (SNB-19 CNS): > 100 µM
- TGI (MDA-MB-231 breast): > 100 µM
- TGI (UACC-257 melanoma): > 100 µM
- TGI (NCI/ADR-RES ovarian): > 100 µM
- TGI (CAKI-1 renal): > 100 µM
- TGI (OVCAR-3 ovarian): > 100 µM
- TGI (SK-MEL-2 melanoma): > 100 µM
- TGI (LOX IMVI melanoma): > 100 µM
- TGI (NCI-H226 lung): > 100 µM

SMILES: C[N+](C)(C)CC(=O)N/N=C(/Cc1nc2ccc(Cl)cc2[nH]c1=O)C1=NS(=O)(=O)c2cc(S(N)(=O)=O)c(Cl)cc2N1
- TGI (HCT-116 colon): > 100 µM
- TGI (DLD-1 colon): > 100 µM
- TGI (SK-MEL-28 melanoma): > 100 µM
- TGI (UO-31 renal): > 100 µM
- TGI (HT29 colon): > 100 µM
- TGI (SF-295 CNS): > 100 µM
- TGI (SN12C renal): > 100 µM
- TGI (DMS 114 small cell lung): > 100 µM
- TGI (MOLT-4 leukemia): > 100 µM
- TGI (NCI-H522 lung): > 100 µM
- TGI (HL-60(TB) leukemia): > 100 µM
- TGI (SF-539 CNS): > 100 µM
- TGI (A549 NSCLC): > 100 µM
- TGI (M19-MEL melanoma): > 100 µM
- TGI (SF-268 CNS): > 100 µM
- TGI (SW-620 colon): > 100 µM
- TGI (ACHN renal): > 100 µM
- TGI (UACC-62 melanoma): > 100 µM
- TGI (OVCAR-8 ovarian): > 100 µM
- TGI (KM12 colon): > 100 µM
- TGI (RPMI-8226 leukemia): > 100 µM
- TGI (786-0 renal): > 100 µM
- TGI (SR leukemia): > 100 µM
- TGI (SK-MEL-5 melanoma): > 100 µM
- TGI (TK-10 renal): > 100 µM
- TGI (EKVX NSCLC): > 100 µM
- TGI (IGROV1 ovarian): > 100 µM
- TGI (HOP-62 NSCLC): > 100 µM
- TGI (OVCAR-5 ovarian): > 100 µM
- TGI (SK-OV-3 ovarian): > 100 µM
- TGI (A498 renal): > 100 µM
- TGI (OVCAR-4 ovarian): > 100 µM
- TGI (NCI-H460 lung): > 100 µM
- TGI (COLO 205 colon): > 100 µM
- TGI (NCI-H23 lung): > 100 µM
- TGI (K-562 leukemia): > 100 µM
- TGI (HCC-2998 colon): > 100 µM
- TGI (RXF 393 renal): > 100 µM
- TGI (CCRF-CEM leukemia): > 100 µM
- TGI (MALME-3M melanoma): > 100 µM
- TGI (SNB-19 CNS): > 100 µM
- TGI (UACC-257 melanoma): > 100 µM
- TGI (OVCAR-3 ovarian): > 100 µM
- TGI (SK-MEL-2 melanoma): > 100 µM
- TGI (KM20L2 colon): > 100 µM
